Data reported in PMC2216936 (The Journal of General Physiology, 1995).

What was measured:
[1] = target: voltage-gated sodium channel (sheep brain synaptoneurosomes; isoform not stated); assay: inhibition of [3H]-BTX-B radioligand binding at […] C; design: species or system Ovis aries
[2] = tested on: voltage-gated sodium channel (GH3 cells; isoform not stated); assay: whole-cell voltage clamp, block of peak INa; assay type: cell-based

IC50 [1]: 3.3 µM
IC50 [2]: 27 µM
SMILES: CCCCN(CCCC)CCNC(=O)c1ccc(N=[N+]=[N-])cc1 [DNB-AB, N-(2-di-N-butyl-aminoethyl)-4-azidobenzamide]
